Assay results from paper PMC7026387, “Improved Prediction of Aqueous Solubility of Novel Compounds by Going Deeper With Deep Learning” (Frontiers in Oncology, 2020).
Values after ≈ are worked out from the molar mass of the structure shown. Like-named read-outs stand apart in the source and are kept apart here.

Assays:
[1] = Aqueous solubility (pH 7) by modified shake flask method and RP-HPLC; format: physicochemical
Procedure: In one of our drugs discovering projects toward antitumor therapeutics, a series of novel FLT3 inhibitors were designed and synthesized using the structure-based drug design methods. The aqueous solubilities (pH = 7) of these compounds were measured using the modified shake flask method and RP-HPLC ([34], [35]). Each compound was added into a 1.5 mL Eppendorf tube containing Milli-Q water (1 mL) to form the precipitates at 25°C. Then the mixture was subjected to a solubility-equilibrium stage. The tube was shook at 300 rpm at 25°C for 24 h. The precipitate was separated by centrifugation at 23,000 g for 20 min. Subsequently, 0.25 mL of supernatant was transferred into a 1 mL Eppendorf tube, and it was centrifuged again with the same settings used above. The supernatant was then used for HPLC analysis. An Agilent 1260 Infinity LC system (Agilent Technologies, Inc., Santa Clara, California) was used. For HPLC conditions, a ZORBAX SB-C18 column (5 μM, 4.6 × 150 mm; Agilent), a flow rate of 0.8 mL/min for mobile phase, a UV wavelength of 250 nm and a column temperature of 30°C were used. The sample was injected automatically by a mechanical arm and separated by a constant mixture of methanol/PBS (pH 5.6), 90:10. For each compound, a standard curve consisting of four concentrations was established. The synthetic methods of all but compound SC5 and SC6 have been published in literatures ([36]–[39]). The synthetic methods of SC5 and SC6 are described in Supplementary Method 1.

[2] = cited from earlier work; for LogS_exp: experimental aqueous solubility: literature S values converted to mol/L and transformed into logS; for Experimental S value: room-temperature, around pH 7.0
[3] = Milli-Q water, pH 7, 25°C, 24 h shaking, RP-HPLC, read-out: Experimental S value
[4] = method NA, ref Hamdy et al., 2017
[5] = by HPLC, ref Thompson et al., 2018

Cc1nc(Nc2c[nH]nc2C(=O)Nc2ccc(CN3CCOCC3)cc2)c2cc(C(C)C)sc2n1 [SC3]
solubility thermodynamic at 24 h [1, 3]: 60.7 µg/mL (≈ 124 µM)

N#CCC(=O)c1cc(C#N)cs1 [SC1]
solubility thermodynamic at 24 h [1, 3]: 30.7 µg/mL (≈ 174 µM)

COc1cc(OC)c2c(c1Cl)O[C@]1(C2=O)C(OCc2ccccc2)=C/C(=N\OCC(=O)O)C[C@H]1C (relative stereo) [NC5]
LogS_exp: experimental aqueous solubility [2]: -4.254 logarithmic units of mol/L | Experimental S value [2, 4]: 27.94 µg/mL

O=[N+]([O-])c1cn2c(n1)OC[C@H](Oc1ccc(C(F)(F)F)cn1)C2 [NC7]
Experimental S value [2, 5]: 110 µg/mL

CN1CCC(Nc2ccc(C(=O)Nc3n[nH]c4cc(Oc5ccccc5)ccc34)cc2)CC1 [SC6]
solubility thermodynamic at 24 h ([1]; pH 7, water): < 10 µg/mL

Cc1nc2c(c(-c3nc(Nc4c[nH]nc4C(=O)Nc4ccc(N5CCNCC5)cc4)c4ccsc4n3)n1)CCCC2 [SC4]
Experimental S value ([1]; Milli-Q water, pH 7, 25°C, 24 h shaking, RP-HPLC): 0.10491 mg/mL | solubility thermodynamic at 24 h [1, 3]: 105 µg/mL (≈ 185 µM)

O=C(Nc1ccccc1OC(F)(F)F)N[C@@H]1COc2nc([N+](=O)[O-])cn2C1 [NC3]
Experimental S value [2, 5]: 22 µg/mL | LogS_exp: experimental aqueous solubility [2]: -4.246 logarithmic units of mol/L

COc1ccc(Oc2ccc3c(NC(=O)c4ccc(NC5CCN(C)CC5)cc4)n[nH]c3c2)cc1 [SC5]
Experimental S value ([1]; 24 h, pH 7): 0.019714 mg/mL | solubility thermodynamic at 24 h ([1]; pH 7, water): 19.7 µg/mL (≈ 41.8 µM) | melting point: 236 to 238 °C

CN(Cc1ccc(C(F)(F)F)cc1)c1cc(C(=O)Nc2ncn(C)n2)ncn1 [NC2]
LogS_exp: experimental aqueous solubility [2]: -3.762 logarithmic units of mol/L | Experimental S value ([2]; method NA, ref Wilson et al., 2017): 173 µM

O=C(/C=C(/C=C/c1cccnc1)NCCO)/C=C/c1cccnc1 [NC6]
Experimental S value ([2]; by shake flask method and colorimetry, ref Theppawong et al., 2018): 4350.8 µM | LogS_exp: experimental aqueous solubility [2]: -2.361 logarithmic units of mol/L

N#Cc1csc(-c2cc(N)[nH]n2)c1 [SC2]
solubility thermodynamic at 24 h ([1]; pH 7, water): 31.7 µg/mL (≈ 167 µM)

COC1=C/C(=N/NC(=O)c2ccncc2)C[C@@H](C)[C@]12Oc1c(Cl)c(OC)cc(OC)c1C2=O (relative stereo) [NC4]
LogS_exp: experimental aqueous solubility [2]: -4.576 logarithmic units of mol/L | Experimental S value [2, 4]: 12.53 µg/mL
